Results reported in patent US6639058B2, “Method of dissolving preformed β-amyloid peptide fibrils in vitro by poly-lysine” (priority 2001, dated 2003).

Assays:
[1] = biological target: T1, preformed βA25-35 fibrils (Homo sapiens, UniProt P05067); test: Electron microscopy analysis of the ability to dissolve preformed βA fibrils in vitro (βA25-35); format: biochemical; settings: for ability to dissolve preformed βA25-35 fibrils: 10 μl tested compound mixed with 10 μl preformed fibrils, negative-staining electron microscopy immediately performed, Poly-L-Lysine 25 mg/ml, Polyethylene glycol 10 mg/ml, L-Lysine 1 M
T1 construct: 0.5 mg/ml for βA25-35 prepared in water or in PBS
Protocol: (§1) Aliquots of βA at a concentration of 1.5 mg/ml for both βA1-40 and βA1-42 and 0.5 mg/ml for βA25-35 prepared in water or in PBS, were incubated for 5 days at 37° C. At the end of the incubation period, 10 μl of βA solution were mixed with 10 μl of water for negative-staining electron microscopy analysis.
(§2) All compounds used to test the ability to dissolve preformed βA fibrils in vitro: Poly-L-Lysine, Polyethylene glycol and L-Lysine, were prepared in water and at a concentration of 25 mg/ml, 10 mg/ml and 1 M respectively. Then, 10 μl of tested compound were mixed with 10 μl of water for negative-staining electron microscopy analysis.
(§3) In order to evaluate the ability of compounds to dissolve preformed βA fibrils in vitro, 10 μl of tested compound were mixed with 10 μl of preformed βA fibrils and the negative-staining electron microscopy analysis was immediately performed.
(§4) Samples of tested compound, βA with or without tested compound were placed on carbon formar-coated 200-mesh nickel grids. The grids were stained for 5 minutes with 1% phosphotungstic acid and visualized on a Philips EM 401 electron microscope at 80 kV.

preformed βA1-40 fibrils = biological target: T2, preformed βA1-40 fibrils (Homo sapiens, UniProt P05067); test: Electron microscopy analysis of the ability to dissolve preformed βA fibrils in vitro (βA1-40); format: biochemical; settings: data not shown
T2 construct: 1.5 mg/ml for both βA1-40 and βA1-42
T2 sequence (P05067 672-711): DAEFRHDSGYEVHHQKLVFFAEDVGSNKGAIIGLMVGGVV
Protocol: as §1, §2, §3, §4

Row | Compound | ability to dissolve preformed βA25-35 fibrils [1] | speed of efficiency in dissolving preformed βA fibrils ([1]; in vitro, electron microscopy immediately after mixing) | potential to dissolve preformed βA1-40 fibrils (preformed βA1-40 fibrils)
1 | Cl.NCCCC[C@H](N)C(=O)O [L-Lysine, L-Lysine, monohydrochloride, reference compound] | not effective |  | 
2 | Poly-L-Lysine, hydrobomide | completely dissolved | instantaneous | also observed
